Literature values as cited in PMC5296674, “Evaluation of the Availability and Antioxidant Capacity of Maillard Compounds Present in Bread Crust: Studies in Caco-2 Cells” (Foods, 2017).

Tested on: Caco-2 cells
Parameters: method as in PMID 19338346

Row | HMF transport rate (100 µM HMF solution, 4 h of incubation) | Compound | Saturation of transport (100 and 500 μM)
1 | – | CC1=C(O)C(=O)C(C)O1 (centres unmarked) [HDMF, 4-hydroxy-2,5-dimethyl-3(2H)-furanone] | saturation of the transport was not observed
2 | around 20% | O=Cc1ccc(CO)o1 [HMF, hydroxymethylfurfural] | –
